For this assay, the target named is T1, Cbl-B (Homo sapiens, UniProt Q13191).
T1 construct: MSD-Based Assay for Degradation of Cbl-B in THP-1 Cells; endogenous in cells; host or cells: THP-1 (title) / Jurkat (protocol text)
Description: MSD-based assay for degradation of Cbl-B in THP-1 cells. The class given is cell-based. The procedure:
MSD-Based Assay for Degradation of Cbl-B in THP-1 Cells
Assay plates were then shaken at 600 rpm for 5 minutes, followed by incubation for 24 hours in the 37° C. TC incubator. […] Cell debris was then spun down at maximum speed (about 3200 g) for 30 min and lysates frozen in the −80° C. fridge. Meanwhile, MSD plates (L15XA-3) were coated overnight at 4° C. with 1 ug/mL capture antibody (Anti-Cbl-B antibody, 246C5a and Mouse mAB, ab54362). […] Blocking buffer was 3% Blocker A (MSD, R93BA-4) in TBST. Plates were washed 3× with 150 ul/well of 1×TBST and sample lysates (70 ul/well) then added, followed by shaking for 1 hr at RT, 600 rpm. […] Plates were again washed 3× with 150 ul/well of 1×TBST, followed by addition of Secondary Detection antibody, SULFO-TAG anti-species antibody (Anti Rabbit Antibody (R32AB-5) MSD, R32AB-1) at a final concentration of 1 ug/ml and 25 uL/well, followed by shaking for 1 hr at RT, 600 rpm. Plates were again washed 3× with 150 ul/well of 1×TBST, followed by addition of 1×MSD reading buffer (MSD, R92TC-2), 150 ul/well, diluted from 4× with water.
Compound Dmax were binned into A through D as follows: A indicates >70%, B indicates 50-70%, C indicates 30-50%, D indicates <30%.

Where [1] appears, read: Cbl-B degradation, Jurkat cells seeded (heading: THP-1 cells), 24 hours incubation, MSD readout.
[2] abbreviates: Cbl-B degradation, Jurkat cells seeded (heading: THP-1 cells), 24 hours incubation, MSD readout, read-out: Dmax.

For 26 compounds, DC50 and Dmax results are on record in patent US20250340552A1, “COMPOUNDS, COMPOSITIONS AND METHODS OF TREATING DISORDERS” (HOTSPOT THERAPEUTICS, INC., priority 2022, published 2025).

Like-named read-outs stand apart in the source and are kept apart here.

As usually defined, the DC50 is the concentration giving 50% degradation. A higher DC50 goes with degradation only at high concentration. As usually defined, the Dmax is the greatest extent of degradation seen.

T1 sequence (Q13191 whole entry): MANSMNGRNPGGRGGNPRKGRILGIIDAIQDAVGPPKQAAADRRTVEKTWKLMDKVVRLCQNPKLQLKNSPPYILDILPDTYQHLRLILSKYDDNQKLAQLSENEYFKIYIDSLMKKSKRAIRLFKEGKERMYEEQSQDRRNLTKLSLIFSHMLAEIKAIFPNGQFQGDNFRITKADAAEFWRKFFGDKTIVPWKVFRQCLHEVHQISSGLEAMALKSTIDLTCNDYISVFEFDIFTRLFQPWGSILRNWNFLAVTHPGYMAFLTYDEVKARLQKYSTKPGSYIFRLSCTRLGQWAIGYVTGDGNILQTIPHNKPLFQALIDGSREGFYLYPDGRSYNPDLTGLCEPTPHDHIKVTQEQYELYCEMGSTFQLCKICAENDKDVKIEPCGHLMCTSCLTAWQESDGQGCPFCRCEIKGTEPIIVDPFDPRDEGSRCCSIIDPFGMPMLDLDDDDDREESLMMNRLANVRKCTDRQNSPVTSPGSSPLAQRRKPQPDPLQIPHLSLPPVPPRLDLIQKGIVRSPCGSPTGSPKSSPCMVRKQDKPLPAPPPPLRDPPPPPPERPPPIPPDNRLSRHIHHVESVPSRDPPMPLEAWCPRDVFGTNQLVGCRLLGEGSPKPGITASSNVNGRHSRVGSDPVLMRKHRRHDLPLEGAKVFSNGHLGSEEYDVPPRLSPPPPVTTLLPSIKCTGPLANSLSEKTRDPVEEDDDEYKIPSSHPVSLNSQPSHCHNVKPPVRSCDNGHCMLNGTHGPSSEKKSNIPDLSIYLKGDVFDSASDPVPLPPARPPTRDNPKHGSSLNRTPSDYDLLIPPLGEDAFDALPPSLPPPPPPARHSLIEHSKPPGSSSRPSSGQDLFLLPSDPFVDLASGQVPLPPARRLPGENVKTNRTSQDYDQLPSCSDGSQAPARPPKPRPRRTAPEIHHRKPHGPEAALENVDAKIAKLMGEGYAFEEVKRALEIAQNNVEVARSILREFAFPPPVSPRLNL

`Cn1cnnc1[C@@H](c1cccc(-n2cc3c(C(F)(F)F)cc(CN4CCC(OCCOCc5ccc(CN6CCN(c7ccc8c(c7)CN([C@@H]7CCC(=O)NC7=O)C8=O)CC6)cc5)CC4)cn3c2=O)c1)C1CCC1` (single isomer, unassigned) [Compound 87]: the DC50 under setting [1] was 300 to 1000 nM. Further, the Dmax under setting [2] was 30 to 50%.

The compound `Cn1cnnc1[C@@H](c1cccc(-n2cc3c(C(F)(F)F)cc(CN4CCC(OCCOCc5ccc(CN6CCN(c7ccc8c(c7)CN([C@H]7CCC(=O)NC7=O)C8=O)CC6)cc5)CC4)cn3c2=O)c1)C1CCC1` (single isomer, unassigned) [Compound 88] showed a DC50 under setting [1] of less than 30 nM. The Dmax under setting [2] was greater than 70%.

Under setting [1], `CN(CCOC1CCN(Cc2cc(C(F)(F)F)c3cn(-c4cccc([C@H](c5nncn5C)C5CCC5)c4)c(=O)n3c2)CC1)C(=O)c1ccc(N2CC3CC(C2)N3c2ccc3c(c2)CN([C@@H]2CCC(=O)NC2=O)C3=O)cc1` (single isomer, unassigned) [Compound 89] showed a DC50 of 1000 to 10000 nM. The same compound had a Dmax (THP-1) of 30 to 50%.

The compound `CN(CCOC1CCN(Cc2cc(C(F)(F)F)c3cn(-c4cccc([C@H](c5nncn5C)C5CCC5)c4)c(=O)n3c2)CC1)C(=O)c1ccc(N2CC3CC(C2)N3c2ccc3c(c2)CN([C@H]2CCC(=O)NC2=O)C3=O)cc1` (single isomer, unassigned) [Compound 90] registered a DC50 under setting [1] of 1000 to 10000 nM. Further, the Dmax under setting [2] was 30 to 50%.

On to `Cn1cnnc1[C@@H](c1cccc(-n2cc3c(C(F)(F)F)cc(CN4CCC(OCc5ccc(CN6CCN(c7ccc8c(c7)CN([C@@H]7CCC(=O)NC7=O)C8=O)CC6)cc5)CC4)cn3c2=O)c1)C1CCC1` (single isomer, unassigned) [Compound 91], for which the DC50 under setting [1] was 300 to 1000 nM. The Dmax (THP-1) lay within 30 to 50%.

`Cn1cnnc1[C@@H](c1cccc(-n2cc3c(C(F)(F)F)cc(CN4CCC(OCc5ccc(CN6CCN(c7ccc8c(c7)CN([C@H]7CCC(=O)NC7=O)C8=O)CC6)cc5)CC4)cn3c2=O)c1)C1CCC1` (single isomer, unassigned) [Compound 92] came in with a DC50 under setting [1] of less than 30 nM. For the same compound, the Dmax under setting [2] is greater than 70%.

Under setting [1], `Cn1cnnc1CC1(c2cccc(-n3cc4c(C(F)(F)F)cc(CN5CCC(OCc6ccc(CN7CCN(c8ccc9c(c8)CN([C@@H]8CCC(=O)NC8=O)C9=O)CC7)cc6)CC5)cn4c3=O)c2)COC1` (single isomer, unassigned) [Compound 93] came in with a DC50 of 30 to 300 nM. For the same compound, the Dmax under setting [2] lay in the range of 50 to 70%.

The compound `Cn1cnnc1CC1(c2cccc(-n3cc4c(C(F)(F)F)cc(CN5CCC(OCc6ccc(CN7CCN(c8ccc9c(c8)CN([C@H]8CCC(=O)NC8=O)C9=O)CC7)cc6)CC5)cn4c3=O)c2)COC1` (single isomer, unassigned) [Compound 94] registered a DC50 under setting [1] of less than 30 nM. Moreover, the Dmax under setting [2] was greater than 70%.

Regarding `Cn1cnnc1[C@@H](c1cccc(-n2cc3c(C(F)(F)F)cc(-c4nccn4CCOCCN4CCC(CN5CCN(c6ccc7c(c6)CN([C@H]6CCC(=O)NC6=O)C7=O)CC5)CC4)cn3c2=O)c1)C1CCC1` (single isomer, unassigned) [Compound 98], the DC50 under setting [1] was greater than 10000 nM. Moreover, the Dmax under setting [2] is less than 30%.

Regarding `Cn1cnnc1CC1(c2cccc(-n3cc4c(C(F)(F)F)cc(-c5nccn5CCOCCN5CCC(CN6CCN(c7ccc8c(c7)CN([C@H]7CCC(=O)NC7=O)C8=O)CC6)CC5)cn4c3=O)c2)COC1` (single isomer, unassigned) [Compound 100], under setting [1], the DC50 was greater than 10000 nM. For the same compound, the Dmax under setting [2] is less than 30%.

Take `CN(CCO[C@@H]1CCCN(Cc2cc(C(F)(F)F)c3cn(-c4cccc([C@H](c5nncn5C)C5CCC5)c4)c(=O)n3c2)C1)C(=O)c1ccc(N2CCN(c3ccc4c(c3)CN([C@@H]3CCC(=O)NC3=O)C4=O)CC2)cc1` (single isomer, unassigned) [Compound 103]: the DC50 under setting [1] fell in the range of 300 to 1000 nM.

`CN(CCO[C@H]1CCCN(Cc2cc(C(F)(F)F)c3cn(-c4cccc([C@H](c5nncn5C)C5CCC5)c4)c(=O)n3c2)C1)C(=O)c1ccc(N2CCN(c3ccc4c(c3)CN([C@@H]3CCC(=O)NC3=O)C4=O)CC2)cc1` (single isomer, unassigned) [Compound 105] had a DC50 under setting [1] of 30 to 300 nM.

Regarding `CN(CCOC1CCN(Cc2cc(C(F)(F)F)c3cn(-c4cccc([C@H](c5nncn5C)C5CCC5)c4)c(=O)n3c2)CC1)C(=O)c1ccc(C2CCN(c3ccc4c(c3)CN([C@@H]3CCC(=O)NC3=O)C4=O)CC2)cc1` (single isomer, unassigned) [Compound 107], the DC50 under setting [1] was in the range of 30 to 300 nM. Under “THP-1”, this compound had a Dmax of 50 to 70%.

Take `CN(CCOC1CCN(Cc2cc(C(F)(F)F)c3cn(-c4cccc([C@H](c5nncn5C)C5CCC5)c4)c(=O)n3c2)CC1)C(=O)c1ccc(C2CCN(c3ccc4c(c3)CN([C@H]3CCC(=O)NC3=O)C4=O)CC2)cc1` (single isomer, unassigned) [Compound 108]: under setting [1], the DC50 is less than 30 nM. Also, the Dmax under setting [2] was 50 to 70%.

The compound `Cn1cnnc1[C@@H](c1cccc(-n2cc3c(C(F)(F)F)cc(CN4CCC(CCN5CCC(CN6CCN(c7ccc8c(c7)CN([C@@H]7CCC(=O)NC7=O)C8=O)CC6)CC5)CC4)cn3c2=O)c1)C1CCC1` (single isomer, unassigned) [Compound 109] showed a DC50 under setting [1] of 30 to 300 nM.

On to `Cn1cnnc1[C@@H](c1cccc(-n2cc3c(C(F)(F)F)cc(CN4CCC(CCN5CCC(CN6CCN(c7ccc8c(c7)CN([C@H]7CCC(=O)NC7=O)C8=O)CC6)CC5)CC4)cn3c2=O)c1)C1CCC1` (single isomer, unassigned) [Compound 110], for which the DC50 under setting [1] was less than 30 nM. Also, under setting [2], the Dmax was greater than 70%.

With `Cn1cnnc1[C@@H](c1cccc(-n2cc3c(C(F)(F)F)cc(CN4CCC(CC(=O)N5CCC(CN6CCN(c7ccc8c(c7)CN([C@@H]7CCC(=O)NC7=O)C8=O)CC6)CC5)CC4)cn3c2=O)c1)C1CCC1` (single isomer, unassigned) [Compound 111], the half-maximal degradation concentration (DC50) under setting [1] lay within 30 to 300 nM. Under setting [2], the Dmax is 50 to 70%.

The compound `Cn1cnnc1[C@@H](c1cccc(-n2cc3c(C(F)(F)F)cc(CN4CCC(CC(=O)N5CCC(CN6CCN(c7ccc8c(c7)CN([C@H]7CCC(=O)NC7=O)C8=O)CC6)CC5)CC4)cn3c2=O)c1)C1CCC1` (single isomer, unassigned) [Compound 112] returned a DC50 under setting [1] of less than 30 nM. For the same compound, the Dmax under setting [2] was greater than 70%.

As for `Cn1cnnc1[C@@H](c1cccc(-n2cc3c(C(F)(F)F)cc(CN4CCC(OCCc5ccc(CN6CCN(c7ccc8c(c7)CN([C@@H]7CCC(=O)NC7=O)C8=O)CC6)cc5)CC4)cn3c2=O)c1)C1CCC1` (single isomer, unassigned) [Compound 115], the DC50 under setting [1] is greater than 10000 nM. Further, under setting [2], the Dmax is less than 30%.

Under setting [1], `CN(CC1CCN(Cc2cc(C(F)(F)F)c3cn(-c4cccc([C@H](c5nncn5C)C5CCC5)c4)c(=O)n3c2)CC1)C(=O)c1ccc(N2CCN(c3ccc4c(c3)CN([C@@H]3CCC(=O)NC3=O)C4=O)CC2)cc1` (single isomer, unassigned) [Compound 117] had a DC50 of 1000 to 10000 nM. The Dmax under setting [2] was in the range of 30 to 50%.

Consider `CN(CC1CCN(Cc2cc(C(F)(F)F)c3cn(-c4cccc([C@H](c5nncn5C)C5CCC5)c4)c(=O)n3c2)CC1)C(=O)c1ccc(N2CCN(c3ccc4c(c3)CN([C@H]3CCC(=O)NC3=O)C4=O)CC2)cc1` (single isomer, unassigned) [Compound 118], for which, under setting [1], the DC50 was less than 30 nM. Moreover, the Dmax under setting [2] is greater than 70%.

`CN(CCC(=O)N1CCC(CN2CCN(c3ccc4c(c3)CN([C@@H]3CCC(=O)NC3=O)C4=O)CC2)CC1)Cc1cc(C(F)(F)F)c2cn(-c3cccc([C@H](c4nncn4C)C4CCC4)c3)c(=O)n2c1` (single isomer, unassigned) [Compound 119]: the DC50 under setting [1] was greater than 10000 nM. Further, the Dmax under setting [2] was less than 30%.

As to `CN(CCC(=O)N1CCC(CN2CCN(c3ccc4c(c3)CN([C@H]3CCC(=O)NC3=O)C4=O)CC2)CC1)Cc1cc(C(F)(F)F)c2cn(-c3cccc([C@H](c4nncn4C)C4CCC4)c3)c(=O)n2c1` (single isomer, unassigned) [Compound 120], under setting [1], the half-maximal degradation concentration (DC50) lay within 30 to 300 nM. In addition, the Dmax under setting [2] lay within 50 to 70%.

The compound `Cn1cnnc1[C@@H](c1cccc(-n2cc3c(C(F)(F)F)cc(CN4CCN(CC(=O)N5CCC(CN6CCN(c7ccc8c(c7)CN([C@@H]7CCC(=O)NC7=O)C8=O)CC6)CC5)CC4)cn3c2=O)c1)C1CCC1` (single isomer, unassigned) [Compound 121] came in with a DC50 under setting [1] of 30 to 300 nM. Further, the Dmax under setting [2] lay in the range of 50 to 70%.

With `Cn1cnnc1[C@@H](c1cccc(-n2cc3c(C(F)(F)F)cc(CN4CCN(CC(=O)N5CCC(CN6CCN(c7ccc8c(c7)CN([C@H]7CCC(=O)NC7=O)C8=O)CC6)CC5)CC4)cn3c2=O)c1)C1CCC1` (single isomer, unassigned) [Compound 122], the DC50 under setting [1] is less than 30 nM. Under setting [2], the Dmax is greater than 70%.

With `CN(CCCN1CCN(Cc2cc(C(F)(F)F)c3cn(-c4cccc([C@H](c5nncn5C)C5CCC5)c4)c(=O)n3c2)CC1)C(=O)c1ccc(N2CCN(c3ccc4c(c3)CN([C@@H]3CCC(=O)NC3=O)C4=O)CC2)cc1` (single isomer, unassigned) [Compound 123], the DC50 under setting [1] is less than 30 nM. For the same compound, the Dmax under setting [2] is greater than 70%.
